Measurements published in patent US20170217976A1, “6-(AMINO ACID)-MORPHINAN DERIVATIVES IN COMBINATION WITH PERMEATION […] FOR USE AS AN ORALLY, […], TRA[…] NASALLY AD[…]” (C[…], priority 2014, published 2017).
Where two headings read alike, the source gives them in different places.

How the values were obtained:
human MOR = target: T1, human MOR (Homo sapiens, UniProt P35372); experiment: biochemical; format: biochemical; settings: for Emax: read-out: [35S]GTPγS binding, MOR % stim.
T1 construct: expressed in transfected cells; host or cells: CHO cells
Protocol: A number of compounds were evaluated for agonist potency and efficacy at the MOR using the [^35S]GTPγS functional assay in CHO cells expressing human MOR receptors.

DOR = target: T2, DOR (Rattus norvegicus, UniProt P33533); experiment: Opioid receptor binding, DOR, rat brain membranes
T2 construct: from tissue

[1] = system: mouse vas deferens preparation; experiment: Mouse vas deferens bioassay; settings: read-out: IC50, agonist potency in mouse vas deferens
Protocol: The mouse vas deferens bioassay was performed as described in: M. Spetea et al., Eur. J. Pharmacol. 2004, 483, 301-308

MOR = target: T3, MOR (Rattus norvegicus, UniProt P33535); experiment: Opioid receptor binding, MOR, rat brain membranes
T3 construct: from tissue

[2] = target: T4, human MOP expressed in CHO cells (Homo sapiens, UniProt P35372); experiment: [35S]GTPγS binding, antagonism at MOR (Ke against DAMGO); format: biochemical
T4 construct: expressed in transfected cells; host or cells: CHO cells (per the unit's head)

KOR = target: T5, KOR (Cavia porcellus, UniProt P41144); experiment: Opioid receptor binding, KOR, guinea pig brain membranes
T5 construct: from tissue

[3] = pH-metric determination of pKa, logP and logD in octanol/water (PCA200/Cheqsol); format: physicochemical; settings: octanol/water, 25° C.
Protocol: All titrations were performed in 0.15M KCl solution under argon gas. The pKa was determined by the shape of the titration curve and partition coefficients were determined by the shift in titration curve of pKa in the presence of octanol. The analysis of pH-metric data was performed by RefinementPro software (version 2.0, Sirius, Sussex, UK).

[4] = Table 1-4, human MOP expressed in CHO cells, read-out: [35S]GTPγS binding, MOR EC50
[5] = Table 1-4, measured against DAMGO
[6] = Binding Ki (nM) KOR, in vitro binding assay, guinea pig brain membranes
[7] = Binding Ki KOR, Table 1-4, guinea pig brain membranes
[8] = Binding Ki (nM) DOR, in vitro binding assay, rat brain membranes
[9] = Binding Ki DOR, Table 1-4, rat brain membranes
[10] = Binding Ki (nM) MOR, in vitro binding assay, rat brain membranes
[11] = Binding Ki MOR, Table 1-4, rat brain membranes

T5 sequence (P41144 whole entry): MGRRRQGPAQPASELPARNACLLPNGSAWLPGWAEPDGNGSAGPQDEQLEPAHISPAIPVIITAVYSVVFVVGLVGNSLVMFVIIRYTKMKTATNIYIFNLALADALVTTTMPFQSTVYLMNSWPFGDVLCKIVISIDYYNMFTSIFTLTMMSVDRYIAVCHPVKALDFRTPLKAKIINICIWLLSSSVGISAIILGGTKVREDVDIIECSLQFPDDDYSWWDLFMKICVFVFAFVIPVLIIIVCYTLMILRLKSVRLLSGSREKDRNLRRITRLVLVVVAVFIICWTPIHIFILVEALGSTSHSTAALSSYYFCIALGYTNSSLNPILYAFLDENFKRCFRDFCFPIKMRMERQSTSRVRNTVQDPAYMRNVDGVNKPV
T1 sequence (P35372 whole entry): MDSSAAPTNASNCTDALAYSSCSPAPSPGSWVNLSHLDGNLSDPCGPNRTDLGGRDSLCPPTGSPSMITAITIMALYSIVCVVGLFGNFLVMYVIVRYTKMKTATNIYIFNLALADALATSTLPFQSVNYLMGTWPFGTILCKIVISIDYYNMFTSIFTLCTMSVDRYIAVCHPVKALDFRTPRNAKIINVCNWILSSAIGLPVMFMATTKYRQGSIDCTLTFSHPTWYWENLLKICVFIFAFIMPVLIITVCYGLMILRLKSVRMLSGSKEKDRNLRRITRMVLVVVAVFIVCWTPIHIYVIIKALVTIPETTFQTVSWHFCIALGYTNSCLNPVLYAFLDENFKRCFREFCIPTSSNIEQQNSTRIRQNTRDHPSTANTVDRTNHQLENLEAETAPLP
T2 sequence (P33533 whole entry): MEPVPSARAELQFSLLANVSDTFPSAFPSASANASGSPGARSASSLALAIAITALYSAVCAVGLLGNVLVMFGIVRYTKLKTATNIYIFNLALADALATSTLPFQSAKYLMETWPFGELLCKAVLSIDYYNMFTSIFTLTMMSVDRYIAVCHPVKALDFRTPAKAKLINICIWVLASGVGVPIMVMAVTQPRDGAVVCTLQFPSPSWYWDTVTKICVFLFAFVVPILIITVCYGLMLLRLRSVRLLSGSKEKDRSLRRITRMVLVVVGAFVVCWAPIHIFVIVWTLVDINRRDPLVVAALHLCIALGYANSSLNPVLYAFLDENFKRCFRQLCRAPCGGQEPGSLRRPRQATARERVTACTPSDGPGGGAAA
T3 sequence (P33535 whole entry): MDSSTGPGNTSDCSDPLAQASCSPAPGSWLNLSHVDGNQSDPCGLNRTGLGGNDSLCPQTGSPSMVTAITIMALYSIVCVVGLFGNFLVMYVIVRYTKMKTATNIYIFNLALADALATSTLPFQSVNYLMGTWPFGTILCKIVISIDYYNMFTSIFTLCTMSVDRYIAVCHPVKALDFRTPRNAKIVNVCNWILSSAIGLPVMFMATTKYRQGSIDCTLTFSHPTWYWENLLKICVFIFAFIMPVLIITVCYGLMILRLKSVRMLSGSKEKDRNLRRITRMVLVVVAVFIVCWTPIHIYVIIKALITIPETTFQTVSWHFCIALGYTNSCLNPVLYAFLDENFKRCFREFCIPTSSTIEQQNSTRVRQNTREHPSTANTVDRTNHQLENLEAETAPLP
T4 sequence (P35372 whole entry): as the sequence (P35372 whole entry) above

Compound | EC50 (human MOR; [4]) | logP [3] | Ki (KOR; [6]) | Ki (KOR; [7]) | Ki (DOR; [8]) | Ki (DOR; [9]) | Ki (MOR; [10]) | Ki (MOR; [11]) | other results
CO[C@@]12CC[C@H](N[C@@H](Cc3ccccc3)C(=O)O)[C@@H]3Oc4c(O)ccc5c4[C@@]31CCN(C)[C@@H]2C5 [Compound 3] | 0.03 nM |  |  |  |  |  |  |  | Emax (human MOR; [5]): 116%
CO[C@@]12CCC(=O)[C@@H]3Oc4c(O)ccc5c4[C@@]31CCN(C)[C@@H]2C5 [Compound 14-OMO, 14-O-methyloxymorphone, reference compound] | 1.17 nM |  |  |  |  |  |  |  | [35S]GTPγS binding, MOR % stim. (human MOR; [5]): 127%; Ki (DOR; Table 1-4, rat brain membranes, read-out: Binding Ki DOR): 4.8 nM; Ki (DOR; in vitro binding assay, rat brain membranes, read-out: Binding Ki (nM) DOR): 4.8 nM; IC50 [1]: 7.76 nM; Ki (MOR; Table 1-4, rat brain membranes, read-out: Binding Ki MOR): 0.1 nM; Ki (MOR; in vitro binding assay, rat brain membranes, read-out: Binding Ki (nM) MOR): 0.1 nM
CO[C@@]12CCC(=O)[C@@H]3Oc4c(O)ccc5c4[C@@]31CCN(CC1CC1)[C@@H]2C5 [Compound 14-OMe-NTX, 14-O-Methylnaltrexone, reference compound] |  |  |  |  |  |  |  |  | EC50 [2]: > 10000 nM; Kb ([2]; [35S]GTPγS binding, MOR Ke, Table 1-6, antagonist Ke measured against DAMGO): 0.49 nM; Ki (KOR; Binding Ki KOR, Table 1-6, guinea pig brain membranes): 1.17 nM; Ki (KOR; Binding Ki KOR, Table 2-6, guinea pig brain membranes): 1.17 nM; Ki (DOR; Binding Ki DOR, Table 1-6, rat brain membranes): 7.88 nM; Ki (DOR; Binding Ki DOR, Table 2-6, rat brain membranes): 7.88 nM; Ki (MOR; Binding Ki MOR, Table 1-6, rat brain membranes): 0.46 nM; Ki (MOR; Binding Ki MOR, Table 2-6, rat brain membranes): 0.46 nM
CO[C@@]12CC[C@H](NCCCC(=O)O)[C@@H]3Oc4c(O)ccc5c4[C@@]31CCN(C)[C@@H]2C5 [Compound 15] |  | -0.36 |  |  |  |  |  |  | EC50 (human MOR): 1.9 nM; Emax (human MOR): 113%
CO[C@@]12CC[C@H](N[C@@H](CCC(=O)O)C(=O)O)[C@@H]3Oc4c(O)ccc5c4[C@@]31CCN(C)[C@@H]2C5 [Compound 19] | 1.61 nM |  |  |  |  |  |  |  | 
CO[C@@]12CC[C@H](N[C@@H](CC(N)=O)C(=O)O)[C@@H]3Oc4c(O)ccc5c4[C@@]31CCN(C)[C@@H]2C5 [Compound 26] | 0.64 nM |  | 74 nM | 74 nM | 3.37 nM | 3.37 nM | 1.17 nM | 1.17 nM | Emax (human MOR; [5]): 109%
CO[C@@]12CC[C@@H](N[C@H](C(=O)O)[C@@H](C)O)[C@@H]3Oc4c(O)ccc5c4[C@@]31CCN(C)[C@@H]2C5 [Compound 35] |  | -1.38 | 58.6 nM | 58.6 nM | 5.16 nM | 5.16 nM | 0.79 nM | 0.79 nM | 
CO[C@@]12CC[C@H](N[C@@H](CO)C(=O)O)[C@@H]3Oc4c(O)ccc5c4[C@@]31CCN(C)[C@@H]2C5 [Compound 36] |  |  | 196 nM | 196 nM | 5.32 nM | 5.32 nM | 2.21 nM | 2.21 nM | EC50 (human MOR): 1.21 nM; Emax (human MOR): 96%
CO[C@@]12CC[C@@H](N[C@@H](CO)C(=O)O)[C@@H]3Oc4c(O)ccc5c4[C@@]31CCN(C)[C@@H]2C5 [Compound 37] | 3.24 nM |  | 152 nM | 152 nM | 5.29 nM | 5.29 nM | 2.14 nM | 2.14 nM | 
CO[C@@]12CC[C@H](N[C@@H](CCCCN)C(=O)O)[C@@H]3Oc4c(O)ccc5c4[C@@]31CCN(C)[C@@H]2C5 [Compound 38] |  | -0.66 | 12.6 nM | 12.6 nM | 1.27 nM | 1.27 nM | 0.19 nM | 0.19 nM | 
CO[C@@]12CC[C@@H](N[C@@H](CC(=O)O)C(=O)O)[C@@H]3Oc4c(O)ccc5c4[C@@]31CCN(C)[C@@H]2C5 [Compound 45] |  | -2.2 |  |  |  |  |  |  | 
